# According to patent US20120252730A1, “PLATELET AGGREGATION INHIBITORS” (UNIVERSITY OF CHICAGO, priority 2009, published 2012):
# Ends that are not written are not given here.
# B1: HHLGGAKQAGDV (SEQ ID NO: 1), soluble peptide (peptide)
# peptide: HHLGGAKQAGDV-NH2
# notes: Synthetic peptide; also called γ peptide
# B2: GRGDSC (SEQ ID NO: 11), immobilized on a self-assembled monolayer (peptide)
# peptide: GRGDSC-NH2
# modifications: not fully specified (residue 6); also: C-terminal Cys thiol linked to maleimide of monolayer
# notes: also called 0.5% GRGDSC SAM
# B3: HHLGGAKQAGDVC (SEQ ID NO: 21), immobilized on a self-assembled monolayer (peptide)
# peptide: HHLGGAKQAGDVC-NH2
# modifications: not fully specified (residue 13); also: C-terminal Cys thiol linked to maleimide of monolayer
# notes: also called 0.5% HHLGGAKQAGDVC SAM; γ peptide
# Experiments:
# αIIbβ3 CHO K1 cells [1] = assay: Blocking of αIIbβ3 CHO K1 cell adhesion to GRGDSC monolayer; format: cell-based, human; conditions: PAC-1 antibody together with cyclic peptide inhibitor cRGDFG
# Excerpt: FIG. 2 depicts the results of FACS analyses and binding studies of a αIIbβ3 expressing CHO K1 cell line. […] Transfected αIIbβ3 CHO K1 cells express αIIbβ3 at the cell surface, as detected by anti-β3 and PAC-1 antibody (bottom) (the middle and right hand lanes show anti-β3 antibody and PAC-1 antibody binding, respectively). Panel B is a graph of the concentration of cRGDFG (SEQ ID NO: 12; where F is a D amino acid) versus adhesion of αIIbβ3 CHO K1 cells. The peptide cRGDFG (SEQ ID NO: 12), a cyclic peptide that specifically binds to α5 and αV integrins, inhibits CHO K1 cell adhesion to 0.5% GRGDSC (SEQ ID NO: 11) SAMs. Panels C-F are photomicrographs of cells adhering to GRGDSC (SEQ ID NO: 11).
# CHO K1 cells were used that were transfected with the αIIbβ3 receptor, as described previously (Salsmann et al., 2005). Cells were transfected with pcDNA3.1 vectors that coded for αIIb and β3 using FuGENE6 and analyzed by FACS after labeling with the PAC-1 (anti-αIIbβ3) and H-96 (anti-β3) antibodies. Approximately 30% of the cells expressed the receptor (FIG. 2A). Because the CHO K1 cells also express αv and α5 integrins on their surfaces, adhesion experiments were performed in the presence of the cyclic peptide cRGDFG (SEQ ID NO: 12), where F is a D amino acid. […] All experiments that follow, unless stated otherwise, were performed in the presence of 300 μM cRGDFG (SEQ ID NO: 12).
# αIIbβ3 CHO K1 cells [2] = assay: Cell adhesion assay: αIIbβ3 CHO K1 cells on SAMs presenting immobilized peptides; format: cell-based, human; conditions: 0.5% peptide SAM; in presence of 300 μM cRGDFG
# Experimental: Monolayers were prepared as described (Houseman, et al., 2003). Glass coverslips were sonicated for 30 minutes in deionized ultrafiltered (DIUF) water and then 30 minutes in ethanol and then dried under a stream of nitrogen. Titanium (4 nm) and then gold (29 nm) were evaporated onto the coverslips using an electron beam evaporator (Boc Edwards) at a rate of 0.05-0.10 nm/s and at a pressure of 1 μTorr. The gold-coated coverslips were immersed in an ethanolic solution of maleimide-terminated disulfide (1%) and tri(ethylene glycol)-terminated disulfide (99%) overnight at room temperature. The total disulfide concentration was 1 mM. The substrates were washed with DIUF water, ethanol and then dried under a stream of nitrogen.
# The pcDNA3.1 vectors that express human αIIb or β3, respectively, have been described previously (see e.g., Litvinov et al. (2006) Biochemistry, 45: 4957-4964). CHO K1, BHK 21 and HT1080 cells were purchased from ATCC. All CHO cells were cultured at 37° C. and 5% CO2 using F12K medium supplemented with 10% FBS and pen/strep. […] CHO K1 cells were transfected with αIIb and β3 cDNA with FuGENE following the supplier's protocol. Transfected cells were selected with 1 mg/mL zeocin and 1 mg/mL geneticin.
# (§1) Cysteine-terminated peptides were immobilized onto maleimide-presenting SAMs by adding 40 μL of 1 mM peptide solution to the biochip and incubating at 37° C. for 1 hour. Substrates were rinsed with DIUF water and ethanol and dried under a stream of nitrogen. αIIbβ3 CHO K1 cells were detached from culture plates with 1 mM EGTA/2 mM EDTA in PBS (phosphate-buffered saline), rinsed with serum-free F-12K medium, centrifuged and resuspended in serum-free F-12K medium supplemented with cRGDFG (SEQ ID NO: 12) (300 μM) and 1× penicillin/streptomycin. After 15-minute of incubation, cells (200,000/mL) were added to substrates in 24-well culture plates. After 2 hour incubation at 37° C. and 5% CO2, media was exchanged for F-12K medium supplemented with 10% FBS, 1× penicillin/streptomycin and cRGDFG (SEQ ID NO: 12) (300 μM). After 2 hours, the substrates were washed gently with warm PBS, and adherent cells were immediately fixed with 4% formaldehyde for 30 minutes, visualized with a 20× objective of a Zeiss Axiovert 200 inverted microscope, and photographed. For cell adhesion assays mediated by Ac-GXGDSC (SEQ ID NO: 26), αIIbβ3 CHO K1 cells were incubated on a 5×4 circle (1 mm diameter) array for 1 hour with serum-free F-12K medium supplemented with cRGDFG (SEQ ID NO: 12) (300 μM) and 1× penicillin/streptomycin, followed by media exchange to F-12K medium supplemented with 10% FBS, 1× penicillin/streptomycin and cRGDFG (SEQ ID NO: 12) (300 μM. The substrates were washed with warm PBS, and adherent cells were immediately fixed and permeabilized with 4% formaldehyde and 0.5% Triton-X for 30 minutes. Fixed cells were stained with DAPI, visualized and photographed with a 20× objective as described. The number of adherent cells per field of view was counted using Image J software. Cells were counted in at least three fields for each circle, and each experiment was repeated 3 times. The degree of adhesion is reported as a percentage of cells that adhere relative to control experiments with the peptide Ac-GRGDSC (SEQ ID NO: 28).
# Monolayers were prepared that presented a mixture of maleimide groups and tri(ethylene glycol) groups with the former present at a density of 0.5% (relative to total alkanethiolate). The monolayers were treated with cysteine-terminated peptides to immobilize the ligands (FIG. 1A). In each case mass spectrometry was used to verify immobilization of the peptides in high yield (Su et al., 2002).
# The adhesion and spreading of αIIbβ3 CHO K1 cells to monolayers presenting GRGDSC (SEQ ID NO: 11), HHLGGAKQAGDVC (SEQ ID NO: 21) and a mixture of both peptides was compared. […]
# αIIbβ3 CHO K1 cells [3] = assay: Immunostaining of cytoskeletal structure of αIIbβ3 CHO K1 cells adherent to model substrates; format: cell-based, human; conditions: monolayers presenting the peptide; four hours; anti-vinculin, phalloidin, DAPI
# Excerpt: αIIbβ3 CHO K1 cells were allowed to adhere and spread on substrates as described above. Substrates were washed gently with PBS, and fixed and permeabilized as described above. Cells were stained with monoclonal anti-vinculin IgG to visualize focal adhesions, phalloidin to visualize stress fibers and DAPI to visualize the nucleus. Substrates were rinsed thoroughly with PBS and mounted on microscope slides with Aqua Poly/Mount (PolySciences Inc.). Substrates were visualized with a 100× objective of a Zeiss Axiovert 200 inverted microscope, and photographed.
# The assembly of focal adhesion and actin stress fibers of αIIbβ3 CHO K1 cells adhered to monolayers presenting GRGDSC (SEQ ID NO: 11), HHLGGAKQAGDVC (SEQ ID NO: 21) a mixture of both peptides, and adsorbed Fbg (FIGS. 3, E, F, G and H respectively) was compared. The αIIbβ3 CHO K1 cells were allowed to attach and spread on the monolayers for four hours, and then fixed the cells and probed with anti-vinculin IgG to visualize focal adhesions and with phalloidin-AF 488 to visualize actin stress fibers.
# αIIbβ3 CHO K1 cells [4] = assay: Ac-GXGDSC peptide array cell adhesion, αIIbβ3 CHO K1 cells; format: cell-based, human; conditions: 0.5% peptide spots; 300 μM cRGDFG
# Experimental: as §1
# To further assay the binding of peptide ligands to the […] integrin for XGD peptide ligands, an array was used to assess the adhesion of cells to peptides having the arginine residue substituted with each amino acid other than cysteine (e.g., A, D, E, F, G, H, I, K, L, M, N, P, Q, R, S, T, V, W, and Y). The library of Ac-GXGDSC (SEQ ID NO: 26) peptides was synthesized and immobilized in an array with each peptide occupying a 1 mm diameter region of the monolayer (FIG. 61). A suspension of αIIbβ3 CHO K1 cells was applied to the entire array and cells were allowed to attach to regions presenting the various peptides. The substrates were then rinsed and stained with DAPI, and the cells were counted to determine the relative efficiency of cell attachment to peptides in the library. […] Substitution with leucine and isoleucine were also active, though at a lower level.
# [5] = target: T1, human αIIbβ3 integrin on transfected CHO K1 cells (human, UniProt P08514 32-1039; P05106 27-788); assay: soluble peptide (1 pM to 100 µM) inhibits adhesion of αIIbβ3 CHO K1 cells to peptide monolayers
# T1 construct: whole, on cells; CHO K1 cells transfected with human αIIb and β3 cDNA; about 30% of the cells expressed the receptor; also called platelet receptor; platelet integrin
# Experimental: Suspensions of αIIbβ3 CHO K1 cells (100,000/mL) were incubated with cRGDFG (SEQ ID NO: 12) (300 μM) in serum-free F-12K medium with 1 mg/mL BSA (bovine serum albumin) and 1× penicillin/streptomycin for 15 minutes at 37° C. and 5% CO₂. These suspensions were then supplemented with soluble peptides at concentrations ranging from 1 pM to 100 μM and further incubated for 15 minutes at 37° C. and 5% CO₂. Cells were then added to monolayers and incubated at 37° C. and 5% CO₂ for 2 hours, then media was exchanged for F-12K medium supplemented with 10% FBS and 1× penicillin/streptomycin. The substrates were further incubated for 2 hours. The substrates were washed gently with warm PBS, and adherent cells were immediately fixed and permeabilized with 4% formaldehyde and 0.5% Triton-X for 30 minutes. Fixed cells were stained with DAPI, visualized and photographed with a 20× as described previously. The number of adherent cells per field of view was counted using Image J. Cells were counted in at least five fields for each substrate, and each experiment was repeated 3 times. The degree of inhibition is reported as a percentage of cells that adhere relative to control experiments in the absence of soluble peptide.
# To verify that the two peptides interact with the same site on αIIbβ3, it was determined whether the peptides GRGDS (SEQ ID NO: 4), […] (SEQ ID NO: 1) and AGDV (SEQ ID NO: 22), in soluble form, could block the attachment of cells to the monolayers presenting these ligands. In these experiments identical suspensions of cells (100,000/mL) were first incubated in serum-free F-12K medium supplemented with cRGDFG (SEQ ID NO: 12) (300 μM) and with the soluble peptides in concentrations ranging from 1 pM to 100 μM and then applied the mixtures to monolayers presenting either the GRGDSC (SEQ ID NO: 11), […] (SEQ ID NO: 21), or AGDVC (SEQ ID NO: 17) peptide (SEQ ID NO: 17) (FIG. 5). Cells were allowed to attach for 2 hours, after which media was exchanged to 10% FBS F-12K medium (supplemented with cRGDFG (SEQ ID NO: 12)) and cultured for an additional 2 hours. […]
# [6] = target: T1, human αIIbβ3 integrin on transfected …; assay: adhesion of αIIbβ3 CHO cells to the peptide monolayer, 300 µM cRGDFG present
# Experimental: For cell adhesion assays mediated by Ac-GXGDSC (SEQ ID NO: 26), αIIbβ3 CHO K1 cells were incubated on a 5×4 circle (1 mm diameter) array for 1 hour with serum-free F-12K medium supplemented with cRGDFG (SEQ ID NO: 12) (300 μM) and 1× penicillin/streptomycin, followed by media exchange to F-12K medium supplemented with 10% FBS, 1× penicillin/streptomycin and cRGDFG (SEQ ID NO: 12) (300 μM. The substrates were washed with warm PBS, and adherent cells were immediately fixed and permeabilized with 4% formaldehyde and 0.5% Triton-X for 30 minutes. Fixed cells were stained with DAPI, visualized and photographed with a 20× objective as described. The number of adherent cells per field of view was counted using Image J software. Cells were counted in at least three fields for each circle, and each experiment was repeated 3 times. The degree of adhesion is reported as a percentage of cells that adhere relative to control experiments with the peptide Ac-GRGDSC (SEQ ID NO: 28).
# CHO K1 cells were used that were transfected with the αIIbβ3 receptor, as described previously (Salsmann et al., 2005). Cells were transfected with pcDNA3.1 vectors that coded for αIIb and β3 using FuGENE6 and analyzed by FACS after labeling with the PAC-1 (anti-αIIbβ3) and H-96 (anti-β3) antibodies. Approximately 30% of the cells expressed the receptor (FIG. 2A). […]
molecule,measurement,setting,value
PAC-1,effect on adhesion of αIIbβ3 CHO K1 cells to monolayer presenting GRGDSC,αIIbβ3 CHO K1 cells [1],prevented cell adhesion to the monolayer
HHLGGAKQAGDVC (HHLGGAKQAGDVC-NH2) [Cys-terminated fibrinogen γ chain peptide immobilized on monolayer],adhesion of αIIbβ3 CHO K1 cells to monolayer presenting the peptide,αIIbβ3 CHO K1 cells [2],adhered
same,cytoskeletal structure and focal adhesions of adherent cells,αIIbβ3 CHO K1 cells [3],well-developed cytoskeletal structures and mature focal adhesions along the perimeter
GGRDGSC (scrambled peptide),adhesion of αIIbβ3 CHO K1 cells to monolayer presenting the peptide,αIIbβ3 CHO K1 cells [2],lack of cell attachment
same,cell adhesion on Ac-GXGDSC array relative to Ac-GRGDSC,αIIbβ3 CHO K1 cells [4],did not adhere
"AGDV-NH2 (also called soluble AGDV) [AGDV (SEQ ID NO: 22), soluble peptide]",binding result,[5],binds
B1,binding result,[5],binds
B2,binding result,[6],binds
B3,binding result,[6],binds
"GRGDS-NH2 (also called soluble GRGDS) [GRGDS (SEQ ID NO: 4), soluble peptide]",binding result,[5],binds
